Data from the supplement of paper PMC10307832.

What was measured:
Experiment in all cases: relative viability (nuclei count vs DMSO), 5 days (fraction); higher = more cells survive
[1] = compound: C1CNCCC1C2=CC(=NN2)C3=CC=NC=C3 + NC(=O)Nc1cc(-c2cccc(F)c2)sc1C(=O)N[C@H]1CCCNC1 [AZD7762] (partner 0.2 µM)
Summary of the method: (§1)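 For relative viability, nuclei counts in treated wells were divided by those in vehicle wells. Lung cancer cell lines had been pin-tool dosed in 1536-well plates the day after seeding and cultured for 5 days, then fixed and stained in one step (final 0.05% Triton X-100, 1% formaldehyde, 1 ug/ml Hoechst) and imaged at 4×. Doses were one drug alone or a fixed anchor-drug dose plus five library-drug doses (not always all listed) in √10 steps, and values are duplicate-plate medians.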

[2] = compound: C1CNCCC1C2=CC(=NN2)C3=CC=NC=C3 + O=C(CCCCCCC(=O)Nc1ccccc1)NO [Vorinostat] (partner 1 µM)
Summary of the method: as §1

[3] = compound: C1CNCCC1C2=CC(=NN2)C3=CC=NC=C3 + O=C(c1cc(Cc2n[nH]c(=O)c3ccccc23)ccc1F)N1CCN(C(=O)C2CC2)CC1 [Olaparib] (partner 8 µM)
Summary of the method: as §1

[4] = compound: C[C@@H](N)c1ccc(C(=O)Nc2ccnc3[nH]ccc23)cc1 + O=C(CCCCCCC(=O)Nc1ccccc1)NO [Vorinostat] (partner 1 µM)
Summary of the method: as §1

Cell Line	relative viability ([1]; first compound 0.08 µM)	relative viability ([1]; first compound 0.8 µM)	relative viability ([1]; first compound 2.53 µM)	relative viability ([1]; first compound 8 µM)	relative viability ([2]; first compound 0.08 µM)	relative viability ([2]; first compound 0.8 µM)	relative viability ([2]; first compound 2.53 µM)	relative viability ([2]; first compound 8 µM)	relative viability ([3]; first compound 0.08 µM)	relative viability ([3]; first compound 0.8 µM)	relative viability ([3]; first compound 2.53 µM)	relative viability ([3]; first compound 8 µM)	relative viability ([4]; first compound 0.04 µM)	relative viability ([4]; first compound 0.1265 µM)	relative viability ([4]; first compound 0.4 µM)	relative viability ([4]; first compound 1.265 µM)	relative viability ([4]; first compound 4 µM)
NCI-H1437	1.09	1.09	1.17	1.09	0.863	0.94	0.912	0.971	0.636	0.644	0.679	0.642	0.882	0.874	0.991	1.02	1.03
NCI-H838	0.928	0.888	0.989	0.934	0.763	0.744	0.744	0.688	0.708	0.795	0.815	0.799	0.763	0.657	0.583	0.41	0.307
NCI-H1666	0.829	0.847	1.04	1	0.964	1.06	1.07	1.08	0.704	0.768	0.806	0.745	1.1	1.05	1.22	1.5	1.31
NCI-H1944	0.442	0.467	0.477	0.503	0.435	0.555	0.603	0.522	0.403	0.384	0.389	0.384	0.56	0.553	0.616	0.491	0.582
NCI-H1755	0.473	0.448	0.419	0.561	0.717	0.737	0.628	0.736	0.974	0.922	0.857	0.852	0.672	0.737	0.75	0.811	0.826
NCI-H23	0.329		0.326	0.308	0.656		0.668	0.721	0.375		0.403	0.349	0.638	0.577	0.846		0.658
ABC-1	0.851	0.519	0.915	1.02	1.2	1.01	1.1	1.14	0.826	0.795	1.15	0.84	1.23	1.11	1.01	0.998	0.941
201T	0.645	0.65	0.654	0.562	0.954	0.955	1.02	0.949	0.832	0.863	0.832	0.858	0.909	0.886	0.981	0.891	1.24
NCI-H1734	0.445	0.59	0.652	0.584	0.749	0.873	0.89	0.85	0.581	0.639	0.598	0.635	0.701	0.791	0.823	0.576	0.806
NCI-H1355	0.682	0.801	0.822	0.796	0.637	0.629	0.788	0.637	0.704	0.727	0.792	0.792	0.663	0.626	0.686	0.583	0.57
NCI-H1915	0.704	0.745	0.722	0.704	0.542	0.554	0.519	0.55	0.265	0.272	0.269	0.25		0.546	0.547		0.462
BEN	0.546	0.634	0.675	0.772	0.489	0.611	0.635	0.57	1.01	1.09	1.2	0.967	0.592	0.573	0.589	0.585	0.587
NCI-H3122	0.948	1.06	0.966	1.01	0.717	0.994	1.05	1.12	0.571	0.6	0.583	0.61	1.04	1.04	1.02	1.03	1.29
HOP-62	0.67	1	0.751	0.462	0.606	0.635	0.733	0.6	0.234	0.386	0.275	0.47	0.715	0.541	0.602	0.179	0.555
HCC-366	0.271	0.361	0.287	0.345	0.444	0.36	0.426	0.372	0.341	0.412	0.498	0.36	0.385	0.306	0.486	0.181	0.398
NCI-H2347	0.763	0.494	0.745	0.76	0.541	0.486	0.573	0.627	0.534	0.514	0.477	0.571	0.762	0.508	0.554	0.559	0.676
NCI-H1648	0.632	0.716		0.78	0.381	0.518		0.488	1.02	0.817		1.3	0.623	0.81	0.754	0.952	0.899
LXF-289	1.15	1.14	1.15	1.1	0.783	0.785	0.723	0.766	1.04	1.16	0.968	1.05	0.742	0.794	0.816	0.876	0.836
NCI-H1793	0.369		0.615	0.61	0.647		0.985	0.874	0.748		0.902	0.953	0.894	0.905	0.991		1.01
LU99A	0.403	0.338	0.4	0.439	0.465	0.45	0.528	0.554	0.257	0.259	0.269	0.314		0.529	0.503	0.418	0.366

Cell Line	relative viability ([1]; first compound 0.08 µM)	relative viability ([1]; first compound 0.8 µM)	relative viability ([1]; first compound 2.53 µM)	relative viability ([1]; first compound 8 µM)	relative viability ([2]; first compound 0.08 µM)	relative viability ([2]; first compound 0.8 µM)	relative viability ([2]; first compound 2.53 µM)	relative viability ([2]; first compound 8 µM)	relative viability ([3]; first compound 0.08 µM)	relative viability ([3]; first compound 0.8 µM)	relative viability ([3]; first compound 2.53 µM)	relative viability ([3]; first compound 8 µM)	relative viability ([4]; first compound 0.04 µM)	relative viability ([4]; first compound 0.1265 µM)	relative viability ([4]; first compound 0.4 µM)	relative viability ([4]; first compound 1.265 µM)	relative viability ([4]; first compound 4 µM)
PC-14	0.363	0.383	0.237	0.348	0.536	0.712	0.897	0.7	0.21	0.273	0.228	0.279	0.714	0.878	0.851		0.683
NCI-H2085	0.999		1.03	1	0.858		0.809	0.845	0.903		0.807	0.746	0.77	0.705	0.806	0.667	0.706
NCI-H2170	0.746	0.909	0.949	0.897	0.658	0.825	0.771	0.762	0.606	0.632	0.626	0.609	0.854	0.886	0.902	0.771	0.846
HCC-78	0.644		0.888	0.723	0.404		0.441	0.475	0.821		0.985	0.748	0.533	0.425	0.622	0.706	0.618
NCI-H1395	0.389	0.437	0.405	0.398	0.668	0.597	0.842	0.792	0.46	0.404	0.447	0.522	0.622	0.772	0.704		0.796
NCI-H2126	1.01	1.04	1.01	1.01	0.79	0.712	0.778	0.797	0.933	0.875	0.923	0.939	1.02	0.685	0.738	0.432	0.916
H3255	0.954	0.835	1.12	0.967	0.95		0.995	0.937	0.562	0.567	0.601	0.608	0.89	0.816	0.886	0.655	0.715
HCC-15	1.17	1.3	1.21	0.987	0.844	0.871	0.845	0.877	0.694	0.789	0.766	0.588	0.844	0.817	0.933	0.997	0.868
HCC-44	0.976	1.04	1.04	1.04	1.11	1.2	0.998	1.11	0.979	1.06	0.953	0.957	1.16	1.07	1.02	1.16	0.82
NCI-H522	0.764	0.915	0.832	0.879	0.911	0.762	0.998	1.04	0.63	0.712	0.726	0.803	0.921	0.907	0.892	0.913	0.753
ChaGo-K-1	0.886	0.876	0.926	0.753	0.731	0.806	0.764	0.765	0.546	0.426	0.435	0.362	0.702	0.751	0.743	0.555	0.676
EMC-BAC-2	0.892	1.14	1.16	1.12		0.475	0.498	0.436	0.346	0.521	0.476	0.477	0.314	0.526	0.427	0.341	0.395
LCLC-103H	0.724	0.738	0.904	0.837	0.822	0.752	0.831	0.757	0.79	0.839	0.717	0.723	0.714	0.634	0.787	0.466	0.608
LK-2		0.29	0.532	0.522	0.304	0.26	0.363	0.126		0.872	0.897	0.707	0.198	0.275	0.222	0.17	0.302
NCI-H2405	0.858	0.717	0.709	0.585	1.04	0.993	1.06	0.901	0.843	0.952	0.894	0.831		1.09	1.02	0.699	0.404
NCI-H2087	1.18	1.46	1.33	1.22	0.682	0.8	0.738	0.684	0.522	0.545	0.528	0.633	0.659	0.58	0.466	0.593	0.549
NCI-H460	0.69	0.673	0.652	0.658	0.484	1.01	0.787	0.683	0.303	0.505	0.451	0.412	0.86	0.73	0.771	0.949	0.702
LOU-NH91	0.797	0.739	0.853	0.773	0.925	1.02	1.05	0.955	0.927	0.963	0.974	0.877	0.754	0.791	0.885	0.625	0.725
NCI-H1651	0.463	0.427	0.488	0.543	0.512	0.581	0.577	0.589	0.174	0.202	0.191	0.176	0.603	0.526	0.647	0.586	0.561
NCI-H441	0.967	1.18	0.948	1.19	0.593	0.944	0.783	0.77	0.422	0.673	0.57	0.567	0.946	0.827	1.03	0.739	0.835
